Measured values reported in publication PMC6792352, “Limited Chemical Structural Diversity Found to Modulate Thyroid Hormone Receptor in the Tox21 Chemical Library” (Environmental Health Perspectives, 2019).
Structures can show the parent of a compound that is named as a salt.

Assay: in vitro
Conditions: rat, gh3-tre-luc cells, AC50 (uM) modified / 1000

SMILES | CC50 at 24 h
CCCCCCCCCCCCCCCS(=O)(=O)Oc1ccccc1 [C10-21 alkanesulfonic acids phenyl esters] | > 50 µM
CO/N=C(\C(=O)N[C@@H]1C(=O)N2C(C(=O)[O-])=C(C[n+]3ccn4ncccc43)CS[C@H]12)c1nsc(N)n1 [Cefozopran hydrochloride] | > 50 µM
CC(=O)c1sc(C)nc1C [5-Acetyl-2,4-dimethylthiazole] | > 90 µM
O=C(CCl)Nc1ccccc1 [2-Chloro-N-phenylacetamide] | 23.7 µM
C[C@H](CS)C(=O)N1CCC[C@H]1C(=O)O [Captopril] | > 50 µM
CC(NNC(=O)c1ccccc1)c1ccccc1 (stereo not drawn) [Benmoxin] | > 50 µM
COc1ccc(S(=O)(=O)N2C(=O)[C@@](c3ccccc3OC)(N3C[C@H](O)C[C@H]3C(=O)N(C)C)c3cc(Cl)ccc32)c(OC)c1 [Nelivaptan] | 34.9 µM
COc1ccc2sc(C(=O)Nc3nnn[nH]3)c(OC(C)C)c2c1 [CI-959] | 6.07 µM
CC(=O)CC(=O)OC(C)(C)C [tert-Butyl 3-oxobutanoate] | > 90 µM
CCCCOCC1CO1 (stereo not drawn) [Butyl glycidyl ether] | > 90 µM
CCCC(=O)OCCC(C)C [Isopentyl butyrate] | > 90 µM
C=CCOc1cc(Cl)ccc1C(=O)NCCN(CC)CC [Alloclamide] | 9.52 µM
NC(Cc1ccc(Cl)cc1)C(=O)O (stereo not drawn) [Fenclonine] | > 50 µM
COCC1=C(C(=O)OC(C)OC(=O)OC(C)C)N2C(=O)[C@@H](NC(=O)/C(=N\OC)c3csc(N)n3)[C@H]2SC1 (stereo partly drawn) [Cefpodoxime proxetil] | > 50 µM
CC1(C)CCC[C@]2(C)[C@H]3CCO[C@]3(C)CC[C@@H]12 [(-)-Ambroxide] | > 90 µM
O=C(CCN1CCC(c2ccccc2)C1)c1ccc2c(c1)OCCO2 (stereo not drawn) [Proroxan] | 38.9 µM
Cc1cc(O)cc(C)c1Cl [4-Chloro-3,5-dimethylphenol] | > 90 µM
O=C(c1ccccc1)c1ccc(O)cc1O [2,4-Dihydroxybenzophenone] | > 90 µM
O=P(O)(O)CP(=O)(O)O [Medronic acid] | > 50 µM
O=C(c1ccccc1)c1cc(Cl)ccc1O [(5-Chloro-2-hydroxyphenyl)phenylmethanone] | > 90 µM

SMILES | CC50 at 24 h
O=C(CN1CCNCC1)NC1CCCCC1 [Esaprazole] | > 50 µM
CCOC(=O)CC(=O)c1ccccc1 [Ethyl benzoylacetate] | > 90 µM
C=C(C)[C@@H]1CC[C@@H](C)C[C@H]1O [Isopulegol] | > 90 µM
OCC1CO1 (stereo not drawn) [Glycidol] | > 90 µM
COC(=O)C(C)=O [Methylpyruvate] | > 90 µM
CC1(C)S[C@@H]2[C@H](NC(=O)[C@H](NC(=O)N3CCN(S(C)(=O)=O)C3=O)c3ccccc3)C(=O)N2[C@H]1C(=O)O [Mezlocillin] | > 50 µM
CCCCCC1CCCC(=O)O1 (stereo not drawn) [6-Pentyltetrahydro-2H-pyran-2-one] | > 90 µM
CSC(=O)c1c(C(F)F)nc(C(F)(F)F)c(C(=O)SC)c1CC(C)C [Dithiopyr] | 57.6 µM
CCn1nc(C(=O)O)c(=O)c2cc3c(cc21)OCO3 [Cinoxacin] | > 20 µM
CCCN[C@H]1CCc2nc(N)sc2C1 [Pramipexole dihydrochloride monohydrate] | > 100 µM
CC(=O)O[C@]1(C(C)=O)CC[C@H]2[C@@H]3C=C(Cl)C4=CC(=O)CC[C@]4(C)[C@H]3CC[C@@]21C [Chlormadinone acetate] | 90.1 µM
CC(CC(C)C)=NO [N-Hydroxy-4-methylpentan-2-imine] | > 90 µM
CC(C)C(C)C [2,3-Dimethylbutane] | > 90 µM
O=CC=C(c1ccccc1)c1ccccc1 [3,3-Diphenylacrylaldehyde] | 42.2 µM
Oc1ccc([C@@H]2CNCc3c2ccc(O)c3O)cc1O [Zelandopam] | 39.3 µM
OCCc1ccccc1 [2-Phenylethanol] | > 50 µM
CCOC(=O)CC(C)C [Ethyl isovalerate] | > 90 µM
FC(F)C(F)(F)OCC(Cn1cncn1)c1ccc(Cl)cc1Cl (stereo not drawn) [Tetraconazole] | > 90 µM
CCCC(=O)O[C@]1(C(=O)COC(C)=O)CC[C@H]2[C@@H]3C[C@H](F)C4=CC(=O)C=C[C@]4(C)[C@@]3(F)[C@@H](O)C[C@@]21C [Difluprednate] | > 50 µM
CC1(C)O[C@@H]2[C@@H](CO[C@@]3(COS(N)(=O)=O)OC(C)(C)O[C@@H]23)O1 [Topiramate] | > 90 µM

SMILES | CC50 at 24 h
CCNc1nc(Cl)nc(NC(C)C)n1 [Atrazine] | > 90 µM
CCOC(=O)c1ccc(NC(=O)CN2CCCCC2)cc1 [Sulcaine] | > 50 µM
Clc1cc(Cl)c2c(c1)N=C1CCCCCN1C2 [1,3-dichloro-6,7,8,9,10,12-hexahydroazepino[2,1-b]quinazoline hydrochloride (1:1)] | > 50 µM
NC(=O)N/N=C/c1ccc([N+](=O)[O-])o1 [Nitrofurazone] | > 90 µM
CCCCCCCCOCCC#N [3-(Octyloxy)propanenitrile] | > 90 µM
OCCc1ccncc1 [2-(Pyridin-4-yl)ethanol] | > 90 µM
CCCC(=O)OCCc1ccccc1 [2-Phenylethyl butanoate] | > 90 µM
C(=C(c1ccccc1)c1ccccc1)c1ccccc1 [Triphenylethylene] | > 90 µM
Nc1c(S(=O)(=O)O)cc(Br)c2c1C(=O)c1ccccc1C2=O [Bromamine acid sodium salt] | 38.3 µM
O=C=Nc1ccc(Cc2ccc(N=C=O)cc2)cc1 [4,4'-Diphenylmethane diisocyanate] | > 90 µM
CC(C)CCCCCCCOC(=O)c1ccccc1C(=O)OCCCCCCCC(C)C [Diisodecyl phthalate] | > 90 µM
C=CCCCCCCCCCCCCCCCC [1-Octadecene] | > 5 µM
CCOC(=O)c1ccc(OC(=O)CCCCCNC(=N)N)cc1 [Gabexate mesilate] | > 20 µM
C=C(C)CCCC(C)CCO (stereo not drawn) [Rhodinol] | > 90 µM
CCCC(C)=O [2-Pentanone] | > 90 µM
CCCCCC/C=C\CCCCCCCC(=O)O [(Z)-Hexadec-9-enoic acid] | > 90 µM
O=NN(CCCl)C(=O)NCCCl [Carmustine] | > 50 µM
C=C1[C@H]2CC[C@@H]3[C@H]2C(C)(C)CCC[C@]13C [Longifolene] | > 90 µM
OCCOCCOCCO [Triethylene glycol] | > 100 µM
O=[N+]([O-])c1cc(C(F)(F)F)c(Cl)c([N+](=O)[O-])c1Nc1ncc(C(F)(F)F)cc1Cl [Fluazinam] | 4.25 µM

Same assay, conditions: rat, gh3-tre-luc cells, AC50 (uM) modified / 1000, Tox21_110001=Tox21_111175; viability, 1 nM T3 present, 24 h

SMILES | CC50 at 24 h
CCOC(=O)CC(SP(=S)(OC)OC)C(=O)OCC (stereo not drawn) [Malathion] | > 50 µM

Same assay, conditions: rat, gh3-tre-luc cells, AC50 (uM) modified / 1000, Tox21_110001=Tox21_112150; viability, 1 nM T3 present, 24 h

SMILES | CC50 at 24 h
CCS(=O)(=O)C(C)(C)S(=O)(=O)CC [Sulfonmethane] | > 50 µM

Same assay, conditions: rat, gh3-tre-luc cells, AC50 (uM) modified / 1000, Tox21_110001=Tox21_113339; viability, 1 nM T3 present, 24 h

SMILES | CC50 at 24 h
CCCCC1C(=O)NC(=O)N(C2CCCCC2)C1=O (stereo not drawn) [Bucolome] | > 50 µM

Same assay, conditions: rat, gh3-tre-luc cells, AC50 (uM) modified / 1000, Tox21_110001=Tox21_200205; viability, 1 nM T3 present, 24 h

SMILES | CC50 at 24 h
CC(Cl)Cl [1,1-Dichloroethane] | > 90 µM

Same assay, conditions: rat, gh3-tre-luc cells, AC50 (uM) modified / 1000, Tox21_110001=Tox21_201325; viability, 1 nM T3 present, 24 h

SMILES | CC50 at 24 h
O=c1[nH]c2ccccc2c(=O)o1 [2H-3,1-Benzoxazine-2,4(1H)-dione] | > 90 µM

Same assay, conditions: rat, gh3-tre-luc cells, AC50 (uM) modified / 1000, Tox21_110001=Tox21_201493; viability, 1 nM T3 present, 24 h

SMILES | CC50 at 24 h
O=NN(O)c1ccccc1 [Cupferron] | > 90 µM

Same assay, conditions: rat, gh3-tre-luc cells, AC50 (uM) modified / 1000, Tox21_110001=Tox21_202224; viability, 1 nM T3 present, 24 h

SMILES | CC50 at 24 h
Nc1ccc(-c2ccc(N)c(Cl)c2)cc1Cl [3,3'-Dichlorobenzidine] | 26.1 µM

Same assay, conditions: rat, gh3-tre-luc cells, AC50 (uM) modified / 1000, Tox21_110001=Tox21_302252; viability, 1 nM T3 present, 24 h

SMILES | CC50 at 24 h
O=C(NCc1cccnc1)Nc1ccc([N+](=O)[O-])cc1 [Pyrinuron] | 81.3 µM

Same assay, conditions: rat, gh3-tre-luc cells, AC50 (uM) modified / 1000, Tox21_110001=Tox21_400048; viability, 1 nM T3 present, 24 h

SMILES | CC50 at 24 h
CCOC(=O)CC(SP(=S)(OC)OC)C(=O)OCC (stereo not drawn) [Malathion] | > 90 µM
